Data on 21 compounds can be found in US20230011571A1, “SMALL MOLECULE FURIN INHIBITORS FOR TREATING INFECTIOUS DISEASES” (BP Asset V, Inc., priority 2019, published 2023).

Holding throughout (assay type): cell-based
The subject of assay [1] is Marburg virus (MARV). Put plainly: organism not typed. The settings on record: Vero, 72 h, read-out: Percent viral inhibition MARV.
Assay [2] has as its system Chikungunya virus (CHIKV). Kind of assay: microbe, parasite or virus in culture. As to conditions: Chikungunya virus, Vero, 48 h, read-out: Percent viral inhibition CHKV.
In assay [3] the test system is dengue virus (DENV). Kind of assay: microbe, parasite or virus in culture. As to conditions: Dengue virus, Vero, 120 h, read-out: Percent viral inhibition DENY.

With `CN1CCN(c2ncc(Oc3cc(CN4CCC5(CC4)CN(C(=O)CO)C5)cc(-c4cc(Cl)cc(Cl)c4)n3)cn2)CC1` [Example 135, 1-(7-((2-(3,5-dichlorophenyl)-6-((2-(4-methylpiperazin-1-yl)pyrimidin-5-yl)oxy)pyridin-4-yl)methyl)-2,7-diazaspiro[3.5]nonan-2-yl)-2-hydroxyethanone], the values for the inhibition at 1 µM in assay [1], in assay [2] and in assay [3] were 51.3%, 12.8% and 56.2%, respectively.

On to `CN1CCN(c2ccc(Oc3cc(CN4CC[C@@H]5[C@H](CC4)[C@H]5C(=O)O)cc(-c4cc(Cl)cc(Cl)c4)n3)cn2)CC1` [Example 136, (1R,7S,8r)-4-((2-(3,5-dichlorophenyl)-6-((6-(4-methylpiperazin-1-yl)pyridin-3-yl)oxy)pyridin-4-yl)methyl)-4-azabicyclo[5.1.0]octane-8-carboxylic acid], for which the inhibition (in general, the share of the control response that was lost under treatment) at 1 µM worked out at 57.8% in assay [1], 39.8% in assay [2] and 18% in assay [3].

`CC(O)CC1CCN(Cc2cc(Oc3cnc(N4CCN(C)CC4)nc3)nc(-c3cc(Cl)cc(Cl)c3)c2)CC1` (stereo not drawn) [Example 138, 1-(1-((2-(3,5-dichlorophenyl)-6-((2-(4-methylpiperazin-1-yl)pyrimidin-5-yl)oxy)pyridin-4-yl)methyl)piperidin-4-yl)propan-2-ol]: the inhibition at 1 µM in assay [1] was found to be 32.4%; in assay [2], 21.7%; in assay [3], 54.9%.

`CN1CCCN(c2ncc(Oc3cc(CN4CCC(OCC(=O)O)CC4)cc(-c4cc(Cl)cc(Cl)c4)n3)cn2)CC1` [Example 140, 2-((1-((2-(3,5-dichlorophenyl)-6-((2-(4-methyl-1,4-diazepan-1-yl)pyrimidin-5-yl)oxy)pyridin-4-yl)methyl)piperidin-4-yl)oxy)acetic acid]: the figures for the inhibition at 1 µM in assay [1], in assay [2] and in assay [3] were 51.5%, 32.7% and 14.1%, respectively.

For the compound `CN1CCN(c2ccc(Oc3cc(CN4CCC5(CC4)CNC(=O)OC5)cc(-c4cc(Cl)cc(Cl)c4)n3)cn2)CC1` [Example 141, 9-((2-(3,5-dichlorophenyl)-6-((6-(4-methylpiperazin-1-yl)pyridin-3-yl)oxy)pyridin-4-yl)methyl)-2-oxa-4,9-diazaspiro[5.5]undecan-3-one], the results for the inhibition at 1 µM in assay [1], in assay [2] and in assay [3] were 66.6%, 20.9% and 27.7%, respectively.

Consider `CN1CCN(c2ncc(Oc3cc(CN4CCC(CC(N)=O)CC4)cc(-c4cc(Cl)cc(Cl)c4)n3)cn2)CC1` [Example 142, 2-(1-((2-(3,5-dichlorophenyl)-6-((2-(4-methylpiperazin-1-yl)pyrimidin-5-yl)oxy)pyridin-4-yl)methyl)piperidin-4-yl)acetamide], for which the inhibition at 1 µM in assay [1] is 49.1%; in assay [2] it was 15.4%; in assay [3], 51.5%.

Take `CN1CCN(c2ncc(Oc3cc(CN4CCC(OC5(C(=O)O)CC5)CC4)cc(-c4cc(Cl)cc(Cl)c4)n3)cn2)CC1` [Example 143, 1-((1-((2-(3,5-dichlorophenyl)-6-((2-(4-methylpiperazin-1-yl)pyrimidin-5-yl)oxy)pyridin-4-yl)methyl)piperidin-4-yl)oxy)cyclopropanecarboxylic acid]: the inhibition at 1 µM in assay [1] amounted to 40.5%; in assay [2], 34.4%; in assay [3], 34.5%.

As for `COC1CN(C)CCN(c2ncc(Oc3cc(CN4CCC(CC(=O)O)CC4)cc(-c4cc(Cl)cc(Cl)c4)n3)cn2)C1` (stereo not drawn) [Example 144, 2-(1-((2-(3,5-dichlorophenyl)-6-((2-(6-methoxy-4-methyl-1,4-diazepan-1-yl)pyrimidin-5-yl)oxy)pyridin-4-yl)methyl)piperidin-4-yl)acetic acid], the inhibition at 1 µM in assay [1] came to 56.6%; in assay [2], 32.6%; in assay [3], 35%.

As for `CN1CCN(c2ncc(Oc3cc(CN4CCC(CC(=O)O)CC4)cc(-c4cc(Cl)cc(Cl)c4)n3)cn2)CC(C)(O)C1` (stereo not drawn) [Example 146, 2-(1-((2-(3,5-dichlorophenyl)-6-((2-(6-hydroxy-4,6-dimethyl-1,4-diazepan-1-yl)pyrimidin-5-yl)oxy)pyridin-4-yl)methyl)piperidin-4-yl)acetic acid], the inhibition at 1 µM is 66.2% in assay [1], 23.1% in assay [2] and 41.8% in assay [3].

Take `CN1CCN(c2ncc(Oc3cc(CN4CCC(CC(=O)O)CC4)cc(-c4cc(Cl)cc(Cl)c4)n3)cn2)CC(F)C1` (stereo not drawn) [Example 147, 2-(1-((2-(3,5-dichlorophenyl)-6-((2-(6-fluoro-4-methyl-1,4-diazepan-1-yl)pyrimidin-5-yl)oxy)pyridin-4-yl)methyl)piperidin-4-yl)acetic acid]: the inhibition at 1 µM in assay [1] is 44.2%; in assay [2] it was 31.7%; in assay [3], 42.8%.

Take `CNC1CCN(c2ncc(Oc3cc(CN4CCC(CC(=O)O)CC4)cc(-c4cc(Cl)cc(Cl)c4)n3)cn2)C1` (stereo not drawn) [Example 152, 2-(1-((2-(3,5-dichlorophenyl)-6-((2-(3-(methylamino)pyrrolidin-1-yl)pyrimidin-5-yl)oxy)pyridin-4-yl)methyl)piperidin-4-yl)acetic acid]: the inhibition at 1 µM is 44.1% in assay [1], 16.3% in assay [2] and 19% in assay [3].

`CN1CCN(c2ncc(Oc3cc(CN4CCO[C@H](CCO)CC4)cc(-c4cc(Cl)cc(Cl)c4)n3)cn2)CC1` [Example 153, (S)-2-(4-((2-(3,5-dichlorophenyl)-6-((2-(4-methylpiperazin-1-yl)pyrimidin-5-yl)oxy)pyridin-4-yl)methyl)-1,4-oxazepan-7-yl)ethanol]: the inhibition at 1 µM in assay [1] turned out to be 56.8%; in assay [2], 14.1%; in assay [3] it was 41.5%.

Consider `CC(=O)CC1CCN(Cc2cc(Oc3cnc(N4CCN(C)CC4)nc3)nc(-c3cc(Cl)cc(Cl)c3)c2)CC1` [Example 155, 1-(1-((2-(3,5-dichlorophenyl)-6-((2-(4-methylpiperazin-1-yl)pyrimidin-5-yl)oxy)pyridin-4-yl)methyl)piperidin-4-yl)propan-2-one], for which the inhibition at 1 µM in assay [1] is 42%; in assay [2] it was 14.5%; in assay [3], 8.98%.

As to `CN1CCCN(c2ccc(Oc3cc(CN4CCC(CC(=O)O)CC4)cc(-c4cc(Cl)cc(Cl)c4)n3)cn2)CC1` [Example 156, 2-(1-((2-(3,5-dichlorophenyl)-6-((6-(4-methyl-1,4-diazepan-1-yl)pyridin-3-yl)oxy)pyridin-4-yl)methyl)piperidin-4-yl)acetic acid], the inhibition at 1 µM in assay [1] was found to be 13.2%; in assay [2], 38.4%; in assay [3], 43.9%.

In the case of `CC(=O)NCC1CCN(Cc2cc(Oc3ccc(N4CCN(C)CC4)nn3)nc(-c3cc(Cl)cc(Cl)c3)c2)CC1` [Example 157, N-((1-((2-(3,5-dichlorophenyl)-6-((6-(4-methylpiperazin-1-yl)pyridazin-3-yl)oxy)pyridin-4-yl)methyl)piperidin-4-yl)methyl)acetamide], the inhibition at 1 µM in assay [1] was 77.5%; in assay [2] it was 25.3%; in assay [3], 53.4%.

As to `NC1CCN(c2ncc(Oc3cc(CN4CCC(CC(=O)O)CC4)cc(-c4cc(Cl)cc(Cl)c4)n3)cn2)CC1` [Example 158, 2-(1-((2-((2-(4-aminopiperidin-1-yl)pyrimidin-5-yl)oxy)-6-(3,5-dichlorophenyl)pyridin-4-yl)methyl)piperidin-4-yl)acetic acid], the inhibition at 1 µM in assay [1] came to 18%; in assay [2] it was 2.85%; in assay [3] it was 19.3%.

On to `C[C@H]1CN(c2ncc(Oc3cc(CN4CCC(CC(=O)O)CC4)cc(-c4cc(Cl)cc(Cl)c4)n3)cn2)CCN1` [Example 159, (S)-2-(1-((2-(3,5-dichlorophenyl)-6-((2-(3-methylpiperazin-1-yl)pyrimidin-5-yl)oxy)pyridin-4-yl)methyl)piperidin-4-yl)acetic acid], for which the inhibition at 1 µM in assay [1] was determined as 49.8%; in assay [2] it was 22.9%; in assay [3] it was 17.5%.

For `CC1(C)CN(c2ncc(Oc3cc(CN4CCC(CC(=O)O)CC4)cc(-c4cc(Cl)cc(Cl)c4)n3)cn2)CCN1` [Example 160, 2-(1-((2-(3,5-dichlorophenyl)-6-((2-(3,3-dimethylpiperazin-1-yl)pyrimidin-5-yl)oxy)pyridin-4-yl)methyl)piperidin-4-yl)acetic acid], the inhibition at 1 µM in assay [1] is 35.1%; in assay [2] it was 21.7%; in assay [3], 49.5%.

`O=C(O)CC1CCN(Cc2cc(Oc3cnc(N4CC5CNCC5C4)nc3)nc(-c3cc(Cl)cc(Cl)c3)c2)CC1` (stereo not drawn) [Example 161, 2-(1-((2-(3,5-dichlorophenyl)-6-((2-(hexahydropyrrolo[3,4-c]pyrrol-2(1H)-yl)pyrimidin-5-yl)oxy)pyridin-4-yl)methyl)piperidin-4-yl)acetic acid]: the inhibition at 1 µM stood at 44.9% in assay [1], 28.5% in assay [2] and 33% in assay [3].

For the compound `O=C(O)CC1CCN(Cc2cc(Oc3cnc(N4CC5CC(C4)N5)nc3)nc(-c3cc(Cl)cc(Cl)c3)c2)CC1` [Example 162, 2-(1-((2-((2-(3,6-diazabicyclo[3.1.1]heptan-3-yl)pyrimidin-5-yl)oxy)-6-(3,5-dichlorophenyl)pyridin-4-yl)methyl)piperidin-4-yl) acetic acid], the inhibition at 1 µM in assay [1] was found to be 72.8%; in assay [2] it was 30.8%; in assay [3], 41.4%.

Regarding `O=C(O)CC1CCN(Cc2cc(Oc3cnc(N4CC5CCC(C4)N5)nc3)nc(-c3cc(Cl)cc(Cl)c3)c2)CC1` [Example 163, 2-(1-((2-((2-(3,8-diazabicyclo[3.2.1]octan-3-yl)pyrimidin-5-yl)oxy)-6-(3,5-dichlorophenyl)pyridin-4-yl)methyl)piperidin-4-yl)acetic acid], the inhibition at 1 µM in assay [1] turned out to be 34.4%; in assay [2] it was 22%; in assay [3], 32.5%.
